Test results taken from ChEMBL document CHEMBL4219169, “Sulfoximines as potent RORγ inverse agonists” (Bioorg Med Chem Lett, 2018).
Converted amounts (≈) assume the structure as drawn.

Tests used:
[1] = system: TK6; assay: Genotoxicity in human TK6 cells incubated for 3 hrs in presence of aroclor-1254-induced rat S9 fraction followed by 27 hrs recovery period by Giemsa staining dependent optical microscopy based micronucleus test; type: toxicity, cell-based; settings: s9, 3 h
[2] = system: Mus musculus; assay: (§1) In vivo inverse agonist activity at RORgamma in wild type BALB/c ByJ Rj mouse model of imiquimod-induced skin inflammation model assessed as attenuation of imiquimod-induced epidermal hyperplasia at 3% administered topically twice daily for 7 days dosed 2 hrs before and 6 hrs after imiquimod administration measured on day 8 by hematoxylin and eosin staining-based histological analysis; type: functional
[3] = Stability of the compound in PG/EtOH96 (3/7) solution at 40 degC after 1 month by HPLC analysis; type: physicochemical; settings: read-out: Stability
[4] = Solubility of the compound in PG/EtOH96 (3/7) solution incubated for 24 hrs by UV spectrometry; type: physicochemical
[5] = system: Mus musculus; assay: as §1, with “1%” for “3%”; type: functional
[6] = system: Mus musculus; assay: as §1, with “0.5%” for “3%”; type: functional
[7] = system: TK6; assay: Genotoxicity in human-derived p53-competent TK6 cells expressing GADD45a-dependent green fluorescent protein assessed as decrease in cell viability after 48 hrs in presence of Sprague-Dawley rat S9 fraction by FACS analysis; type: toxicity, cell-based; settings: s9, 48 h
[8] = Fraction unbound in human plasma at 5 uM incubated for 4 hrs at 37 degC by LC-MS/MS method; type: ADME, cell-free
[9] = system: Salmonella typhimurium; assay: Genotoxicity in Salmonella typhimurium TA100 in presence of aroclor-1254-induced rat S9 fraction by Ames test; type: toxicity, organism-based; settings: salmonella enterica subsp. enterica serovar typhimurium
[10] = system: Mus musculus; assay: as §1, with “0.5 to 6%” for “3%”; type: functional, organism-based
[11] = system: Salmonella typhimurium; assay: Genotoxicity in Salmonella typhimurium TA100 in absence of aroclor-1254-induced rat S9 fraction by Ames test; type: toxicity, organism-based; settings: salmonella enterica subsp. enterica serovar typhimurium
[12] = system: TK6; assay: Genotoxicity in human TK6 cells incubated for 3 hrs in absence of aroclor-1254-induced rat S9 fraction followed by 27 hrs recovery period by Giemsa staining dependent optical microscopy based micronucleus test; type: toxicity, cell-based; settings: tk6, 3 h
[13] = Phototoxicity against human neonatal keratinocytes assessed as cell viability preincubated for 30 mins before 5 J/cm2 UV light irradiation for 15 mins followed by treatment medium replacement with fresh culture medium after 24 hrs by neutral red dye-based assay; settings: 0.25 h

CCc1ccc(N(CC(C)C)S(=O)(=O)c2ccc(OCC3CCOCC3)c([S@@](C)(=N)=O)c2)cc1
Activity [1]: Non-Toxic
Activity [2]: 46%
remaining at 730.5 h [3]: > 98%
solubility at 24 h [4]: 31 mM (≈ 15.8 mg/mL)
Activity [5]: 35%
Activity [6]: 29%
Activity [7]: Non-Toxic
fraction unbound at 4 h, 5 µM [8]: 0.048
Activity [9]: Non-Toxic
Activity [10]: Dose-dependent effect
Activity [11]: Non-Toxic
Activity [12]: Non-Toxic
Activity [13]: Non-Toxic
